Several values for one entry are separate records, joined by “and”; a condition that tells them apart may be missing. Identical values can stand only once.
Test system: MDA-MB-231 complex spheroids, growth inhibition
Experiment: Anticancer human tumor MDA-MB-231 cell line growth inhibition [Asc];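 also: spheroids exposed to compounds for 7 days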
Conditions: for viability, T/C: stronger effect = lower value
How it was run: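 Complex solid-tumor spheroids incorporating human endothelial and mesenchymal stem cells received single agents or combinations over half-log dilution ranges anchored to clinical Cmax.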

[1] = curve of first compound, second compound 0.1 µM
[2] = curve of first compound, second compound 0.316 µM
[3] = curve of first compound, second compound 1 µM
[4] = curve of first compound, second compound 3.16 µM
[5] = curve of first compound, second compound 10 µM
[6] = second compound 0.1 µM, first compound 0.0316 µM
[7] = second compound 0.1 µM, first compound 0.1 µM
[8] = second compound 0.1 µM, first compound 0.316 µM
[9] = second compound 0.1 µM, first compound 1 µM
[10] = second compound 0.316 µM, first compound 0.0316 µM
[11] = second compound 0.316 µM, first compound 0.1 µM
[12] = second compound 0.316 µM, first compound 0.316 µM
[13] = second compound 0.316 µM, first compound 1 µM
[14] = second compound 1 µM, first compound 0.0316 µM
[15] = second compound 1 µM, first compound 0.1 µM
[16] = second compound 1 µM, first compound 0.316 µM
[17] = second compound 1 µM, first compound 1 µM
[18] = second compound 3.16 µM, first compound 0.0316 µM
[19] = second compound 3.16 µM, first compound 0.1 µM
[20] = second compound 3.16 µM, first compound 0.316 µM
[21] = second compound 3.16 µM, first compound 1 µM
[22] = second compound 10 µM, first compound 0.0316 µM
[23] = second compound 10 µM, first compound 0.1 µM
[24] = second compound 10 µM, first compound 0.316 µM
[25] = second compound 10 µM, first compound 1 µM
[26] = curve of first compound, second compound 0.03 µM
[27] = curve of first compound, second compound 0.0949 µM
[28] = curve of first compound, second compound 0.3 µM
[29] = curve of first compound, second compound 0.949 µM
[30] = curve of first compound, second compound 3 µM
[31] = second compound 0.03 µM, first compound 0.0316 µM
[32] = second compound 0.03 µM, first compound 0.1 µM
[33] = second compound 0.0949 µM, first compound 0.0316 µM
[34] = second compound 0.0949 µM, first compound 0.1 µM
[35] = second compound 0.3 µM, first compound 0.0316 µM
[36] = second compound 0.3 µM, first compound 0.1 µM
[37] = second compound 0.949 µM, first compound 0.0316 µM
[38] = second compound 0.949 µM, first compound 0.1 µM
[39] = second compound 3 µM, first compound 0.0316 µM
[40] = second compound 3 µM, first compound 0.1 µM

For `C#Cc1c(F)ccc2cc(O)cc(-c3ncc4c(N5CC6CCC(C5)N6)nc(OCC56CCCN5CC(F)C6)nc4c3F)c12` (stereo unspecified) + Cc1c(S(C)(=O)=O)c(-c2cc(F)cc(N3CCN(c4ccc(NS(=O)(=O)c5ccc(NC(CCN6CCC(C(=O)OCCCP(=O)(O)O)CC6)CSc6ccccc6)c(S(=O)(=O)C(F)(F)F)c5)cc4)CC3)c2)c(-c2ccc(Cl)cc2)n1C(C)C, the IC50 [1] was over 10 µM, the IC50 [2] was 7.53 µM and the IC50 [3] was 4.7 µM. For the same compound, the IC50 [4] was 3.26 µM, the IC50 [5] was 3.28 µM and the viability, T/C [6] was 96.6%. For the same compound, the viability, T/C [7] was 103%, the viability, T/C [8] was 95.6% and the viability, T/C [9] was 73.6%. The viability, T/C (second compound 0.1 µM, first compound 3.16 µM) was 68.7%, the viability, T/C (second compound 0.1 µM, first compound 10 µM) was 50.7% and the viability, T/C [10] was 105%. The viability, T/C [11] was 104%, the viability, T/C [12] was 98.3% and the viability, T/C [13] was 76.6%. The viability, T/C (second compound 0.316 µM, first compound 3.16 µM) was 63.4%, the viability, T/C (second compound 0.316 µM, first compound 10 µM) was 45.5% and the viability, T/C [14] was 102%. For the same compound, the viability, T/C [15] was 96.8%, the viability, T/C [16] was 101% and the viability, T/C [17] was 74.2%. It also gave a viability, T/C (second compound 1 µM, first compound 3.16 µM) of 59.6%, a viability, T/C (second compound 1 µM, first compound 10 µM) of 36.1% and a viability, T/C [18] of 93.3%. It also gave a viability, T/C [19] of 94.6%, a viability, T/C [20] of 97.7% and a viability, T/C [21] of 72.2%. For the same compound, the viability, T/C (second compound 3.16 µM, first compound 3.16 µM) was 52.9%, the viability, T/C (second compound 3.16 µM, first compound 10 µM) was 23.3% and the viability, T/C [22] was 97.2%. It also gave a viability, T/C [23] of 97.2%, a viability, T/C [24] of 99% and a viability, T/C [25] of 89.5%. It also gave a viability, T/C (second compound 10 µM, first compound 3.16 µM) of 51.3% and a viability, T/C (second compound 10 µM, first compound 10 µM) of 12.7%.

Compound `COc1c(OCCCN2CCOCC2)ccc2c3n(c(=NC(=O)c4cnc(N)nc4)nc12)CCN3` + Cc1c(S(C)(=O)=O)c(-c2cc(F)cc(N3CCN(c4ccc(NS(=O)(=O)c5ccc(NC(CCN6CCC(C(=O)OCCCP(=O)(O)O)CC6)CSc6ccccc6)c(S(=O)(=O)C(F)(F)F)c5)cc4)CC3)c2)c(-c2ccc(Cl)cc2)n1C(C)C has an IC50 [1] of 0.0954 µM, an IC50 [2] of 0.0729 µM and an IC50 [3] of 0.0642 µM. The IC50 [4] was 0.0445 µM, the IC50 [5] was 0.049 µM and the viability, T/C (second compound 0.1 µM, first compound 0.00316 µM) was 85.8%. The viability, T/C (second compound 0.1 µM, first compound 0.01 µM) was 85.2%, the viability, T/C [6] was 67.7% and the viability, T/C [7] was 49.3%. The viability, T/C [8] was 31.3%, the viability, T/C [9] was 20.1% and the viability, T/C (second compound 0.316 µM, first compound 0.00316 µM) was 94.6%. The viability, T/C (second compound 0.316 µM, first compound 0.01 µM) was 81.1%, the viability, T/C [10] was 63% and the viability, T/C [11] was 47%. The viability, T/C [12] was 24.3%, the viability, T/C [13] was 12.1% and the viability, T/C (second compound 1 µM, first compound 0.00316 µM) was 94.8%. For the same compound, the viability, T/C (second compound 1 µM, first compound 0.01 µM) was 85.1%, the viability, T/C [14] was 66% and the viability, T/C [15] was 40.8%. It also gave a viability, T/C [16] of 17.6%, a viability, T/C [17] of 8.74% and a viability, T/C (second compound 3.16 µM, first compound 0.00316 µM) of 88.1%. The viability, T/C (second compound 3.16 µM, first compound 0.01 µM) was 84.2%, the viability, T/C [18] was 54.6% and the viability, T/C [19] was 32.8%. For the same compound, the viability, T/C [20] was 12.1%, the viability, T/C [21] was 5.37% and the viability, T/C (second compound 10 µM, first compound 0.00316 µM) was 90.3%. It also gave a viability, T/C (second compound 10 µM, first compound 0.01 µM) of 85.1%, a viability, T/C [22] of 59.8% and a viability, T/C [23] of 32.5%. The viability, T/C [24] was 10.2% and the viability, T/C [25] was 3.64%.

`O=C(c1cc(Cc2n[nH]c(=O)c3ccccc23)ccc1F)N1CCN(C(=O)C2CC2)CC1` + CCN1C(C(=O)NC23CCC(C(=O)O)(CC2)CC3)C(c2cccc(Cl)c2F)C2(C(=O)Nc3cc(Cl)ccc32)C12CCCCC2 gave an IC50 [26] of over 10 µM, an IC50 [27] of over 10 µM and an IC50 [28] of over 10 µM. It also gave an IC50 [29] of over 10 µM, an IC50 [30] of over 10 µM and a viability, T/C [31] of 99.1%. For the same compound, the viability, T/C [32] was 93.9%, the viability, T/C (second compound 0.03 µM, first compound 0.316 µM) was 93.8% and the viability, T/C (second compound 0.03 µM, first compound 1 µM) was 88.2%. The viability, T/C (second compound 0.03 µM, first compound 3.16 µM) was 88.8%, the viability, T/C (second compound 0.03 µM, first compound 10 µM) was 73.8% and the viability, T/C [33] was 106%. For the same compound, the viability, T/C [34] was 104%, the viability, T/C (second compound 0.0949 µM, first compound 0.316 µM) was 98.8% and the viability, T/C (second compound 0.0949 µM, first compound 1 µM) was 99.5%. It also gave a viability, T/C (second compound 0.0949 µM, first compound 3.16 µM) of 90.2%, a viability, T/C (second compound 0.0949 µM, first compound 10 µM) of 77.3% and a viability, T/C [35] of 103%. It also gave a viability, T/C [36] of 103%, a viability, T/C (second compound 0.3 µM, first compound 0.316 µM) of 100% and a viability, T/C (second compound 0.3 µM, first compound 1 µM) of 97.5%. It also gave a viability, T/C (second compound 0.3 µM, first compound 3.16 µM) of 93%, a viability, T/C (second compound 0.3 µM, first compound 10 µM) of 80.3% and a viability, T/C [37] of 102%. It also gave a viability, T/C [38] of 107%, a viability, T/C (second compound 0.949 µM, first compound 0.316 µM) of 103% and a viability, T/C (second compound 0.949 µM, first compound 1 µM) of 101%. The viability, T/C (second compound 0.949 µM, first compound 3.16 µM) was 97.9%, the viability, T/C (second compound 0.949 µM, first compound 10 µM) was 80.7% and the viability, T/C [39] was 99.1%. For the same compound, the viability, T/C [40] was 103%, the viability, T/C (second compound 3 µM, first compound 0.316 µM) was 94.8% and the viability, T/C (second compound 3 µM, first compound 1 µM) was 93.4%. The viability, T/C (second compound 3 µM, first compound 3.16 µM) was 86.7% and the viability, T/C (second compound 3 µM, first compound 10 µM) was 77.8%.

In the case of `O=C(c1cc(Cc2n[nH]c(=O)c3ccccc23)ccc1F)N1CCN(C(=O)C2CC2)CC1`, the viability, T/C (compound 0.0316 µM) is reported as 95.2% and 99.3% and 106%, the viability, T/C (compound 0.1 µM) is reported as 97.2% and 86.9% and 110% and the viability, T/C (compound 0.316 µM) is reported as 92.7% and 75.9% and 84.1%. The viability, T/C (compound 1 µM) was 90.8% and 88.9% and 83.6%, the viability, T/C (compound 3.16 µM) was 87% and 88.3% and 49% and the IC50 (curve of compound) was > 10 µM and 3.18 µM.

`NC1CCC(NC2CC2c2ccccc2)CC1` (stereo unspecified) + CCN1C(C(=O)NC23CCC(C(=O)O)(CC2)CC3)C(c2cccc(Cl)c2F)C2(C(=O)Nc3cc(Cl)ccc32)C12CCCCC2 gave an IC50 [26] of over 0.1 µM, an IC50 [27] of over 0.1 µM and an IC50 [28] of over 0.1 µM. The IC50 [29] was over 0.1 µM, the IC50 [30] was over 0.1 µM and the viability, T/C (second compound 0.03 µM, first compound 0.000316 µM) was 91.2%. For the same compound, the viability, T/C (second compound 0.03 µM, first compound 0.001 µM) was 94.5%, the viability, T/C (second compound 0.03 µM, first compound 0.00316 µM) was 93.4% and the viability, T/C (second compound 0.03 µM, first compound 0.01 µM) was 95.2%. The viability, T/C [31] was 91.8%, the viability, T/C [32] was 96.2% and the viability, T/C (second compound 0.0949 µM, first compound 0.000316 µM) was 101%. For the same compound, the viability, T/C (second compound 0.0949 µM, first compound 0.001 µM) was 103%, the viability, T/C (second compound 0.0949 µM, first compound 0.00316 µM) was 101% and the viability, T/C (second compound 0.0949 µM, first compound 0.01 µM) was 101%. For the same compound, the viability, T/C [33] was 100%, the viability, T/C [34] was 102% and the viability, T/C (second compound 0.3 µM, first compound 0.000316 µM) was 102%. The viability, T/C (second compound 0.3 µM, first compound 0.001 µM) was 104%, the viability, T/C (second compound 0.3 µM, first compound 0.00316 µM) was 101% and the viability, T/C (second compound 0.3 µM, first compound 0.01 µM) was 102%. The viability, T/C [35] was 102%, the viability, T/C [36] was 105% and the viability, T/C (second compound 0.949 µM, first compound 0.000316 µM) was 105%. It also gave a viability, T/C (second compound 0.949 µM, first compound 0.001 µM) of 105%, a viability, T/C (second compound 0.949 µM, first compound 0.00316 µM) of 105% and a viability, T/C (second compound 0.949 µM, first compound 0.01 µM) of 105%. The viability, T/C [37] was 104%, the viability, T/C [38] was 106% and the viability, T/C (second compound 3 µM, first compound 0.000316 µM) was 90%. For the same compound, the viability, T/C (second compound 3 µM, first compound 0.001 µM) was 91%, the viability, T/C (second compound 3 µM, first compound 0.00316 µM) was 89.8% and the viability, T/C (second compound 3 µM, first compound 0.01 µM) was 88.2%. For the same compound, the viability, T/C [39] was 87.5% and the viability, T/C [40] was 89.2%.

Reference: PubChem BioAssay AID1963443 (Molecular Pharmacology Branch, DTP, NCI, 2024)
